How the values were obtained:
rats = settings: cited from earlier work
[1] = test system: conscious, telemetered rats; assay type: in vivo, rat
Source text: The methods used were similar to those described in:
Brockway, B P, Mills, P A & Azar, S H (1991) A new method for continuous chronic measurement of blood pressure, heart rate and activity in the rat via radio-telemetry. Clinical and Experimental Hypertension—Theory and Practice A13(5), 885-895 and
Guiol, C, Ledoussal, C & Surgé, J-M (1992) A radiotelemetry system for chronic measurement of blood pressure and heart rate in the unrestrained rat. Validation of method. Journal of Pharmacological and Toxicological Methods 28, 99-105.
In brief, male rats (n=10) were implanted with a telemetry device for the measurement of arterial blood pressure and heart rate. Two weeks following implantation each animal received a single oral dose of vehicle, one dose of sibutramine or a combination of sibutramine and flesinoxan in a cross-over design. Measurements of blood pressure and heart rate were taken from each rat in sequence every three minutes for nine hours following drug administration and averaged into appropriate time-bins. Statistical comparisons were by the least significant difference or multiple t-test.
In FIGS. 1 and 2, shaded circles relate to the administration of vehicle alone p.o., shaded squares relate to the administration of sibutramine at 10 mg/kg p.o. and shaded triangles relate to the administration of sibutramine at 10 mg/kg p.o. together with flesinoxan at 30 mg/kg p.o. Statistical comparisons made by the least significant difference or multiple t-test are shown as *=p<0.05 versus vehicle and t=p<0.05 versus sibutramine.

For `CCCN(CCC)C1CCc2cccc(O)c2C1` (centres unmarked) [8-OH-DPAT], the food intake (rats) is given as “increases food intake”.

With `O=C(NCCN1CCN(c2cccc3c2OC[C@H](CO)O3)CC1)c1ccc(F)cc1` [flesinoxan] the “effect on the increase in mean arterial blood pressure induced by sibutramine” value ([1]; flesinoxan 30 mg/kg p.o. co-administered with sibutramine 10 mg/kg p.o., FIG. 1) was “completely reversed” and the “effect on the increase in heart rate produced by sibutramine” value ([1]; flesinoxan 30 mg/kg p.o. co-administered with sibutramine 10 mg/kg p.o., FIG. 2) was “prevented the increase in heart rate”.

With `CC(C)CC(N(C)C)C1(c2ccc(Cl)cc2)CCC1` (centres unmarked) [sibutramine, N-{1-[1-(4-chlorophenyl)cyclobutyl]-3-methylbutyl}-N,N-dimethylamine] the “mean arterial blood pressure” value ([1]; sibutramine 10 mg/kg p.o. alone, versus vehicle, conscious telemetered male rats, nine hours, FIG. 1) was “significant increase” and the heart rate ([1]; sibutramine 10 mg/kg p.o. alone, conscious telemetered rats, FIG. 2) was “increase in heart rate”.

— patent US20030130355A1, “Therapeutic agents” (priority 2000, published 2003)
